Measurements published in patent US20080051585A1, “Process for the preparation of indolin-2-one derivatives useful as PR modulators” (Wyeth, priority 2006, published 2008).

melting point: 222.5 to 223.8 °C
Structure (SMILES): Cn1c(C#N)ccc1-c1ccc2c(c1F)C1(CC1)C(=O)N2 [Example 5, 5-(4′-fluoro-2′-oxospiro[cyclopropane-1,3′-indoline]-5′-yl)-1-methyl-1H-pyrrole-2-carbonitrile]
